Data from PMC3108148 (Journal of medicinal chemistry, 2011).

Key:
XIAP linker-BIR2-BIR3 [1] = molecular target: T1, XIAP linker-BIR2-BIR3 (Homo sapiens, UniProt P98170); assay: Cell-free caspase-3/7 functional assay; conditions: compound 60 μM; XIAP linker-BIR2-BIR3 20 nM
XIAP linker-BIR2-BIR3 [2] = molecular target: T1, XIAP linker-BIR2-BIR3; assay: Cell-free caspase-9 functional assay; format: biochemical; conditions: compound as high as 100 μM; XIAP 500 nM
[3] = tested on: PARP cleavage and caspase-3 processing in MDA-MB-231 cells; assay: Western blot analysis of PARP cleavage and caspase-3 processing; format: cell-based, human; conditions: 24 h; for caspase-3 processing and PARP cleavage: 30 nM, MDA-MB-231; for concentration causing PARP cleavage / concentration causing caspase-3 processing: MDA-MB-231, Western blot
[4] = tested on: subset of human cancer cell lines; conditions: cited from earlier work
[5] = molecular target: XIAP L-BIR2-BIR3 (residues 120–356) (Homo sapiens, UniProt P98170); conditions: relative to 15; cited from earlier work
[6] = molecular target: cIAP1 in MDA-MB-231 cells (Homo sapiens, UniProt Q13490); conditions: 24 h, MDA-MB-231, Western blot
[7] = molecular target: cIAP-2 BIR3 (residues 238–349) (Homo sapiens, UniProt Q13489); conditions: relative to 15; cited from earlier work
MDA-MB-231 xenograft [8] = conditions: 5 mg/kg, mice; cited from earlier work
[9] = molecular target: cIAP-1 BIR3 (residues 253–363) (Homo sapiens, UniProt Q13490); conditions: relative to 15; cited from earlier work
Solubility = format: physicochemical
MDA-MB-231 xenograft [10] = conditions: SCID mice; 27 at 1 or 5 mg/kg i.v.; Taxotere […] i.v. days 2 and 9

SMILES: CN[C@@H](C)C(=O)N[C@H]1CCCC[C@H]2CC[C@@H](C(=O)NC(c3ccccc3)c3ccccc3)N2C1=O [Compound 15]
- caspase-3/7 activity restored (XIAP linker-BIR2-BIR3 [1]): 40%

SMILES: CC(=O)N[C@@H](Cc1c[nH]c2ccccc12)C(=O)N[C@H]1CCCC[C@H]2CC[C@@H](C(=O)N[C@@H](c3ccccc3)c3cn(CCCCc4ccc(CCCCn5cc([C@@H](NC(=O)[C@@H]6CC[C@@H]7CCCC[C@H](NC(=O)[C@H](Cc8c[nH]c9ccccc89)NC(C)=O)C(=O)N76)c6ccccc6)nn5)cc4)nn3)N2C1=O [Compound 17]
- restoration of caspase-9 activity (XIAP linker-BIR2-BIR3 [2]): fails to restore any caspase-9 activity

SMILES: CN[C@@H](C)C(=O)N[C@H]1CCCC[C@H]2CC[C@@H](C(=O)N[C@@H](c3ccccc3)c3cn(Cc4ccc(Cn5cc([C@@H](NC(=O)[C@@H]6CC[C@@H]7CCCC[C@H](NC(=O)[C@H](C)NC)C(=O)N76)c6ccccc6)nn5)cc4)nn3)N2C1=O [Compound 18, (S,3S,3′S,6S,6′S,10aS,10a′S)-N,N′-((1S,1′S)-(1,1′-(1,4-phenylenebis(methylene))bis(1H-1,2,3-triazole-4,1-diyl))bis(phenylmethylene))bis(6-((S)-2-(methylamino)propanamido)-5-oxodecahydropyrrolo[1,2-a]azocine-3-carboxamide)]
- caspase-3 processing and PARP cleavage [3]: fail to induce caspase-3 processing and PARP cleavage

SMILES: CN[C@@H](C)C(=O)N[C@H]1CCCC[C@H]2CC[C@@H](C(=O)N[C@@H](c3ccccc3)c3cn(CCCCc4ccc(CCCCn5cc([C@@H](NC(=O)[C@@H]6CC[C@@H]7CCCC[C@H](NC(=O)[C@H](C)NC)C(=O)N76)c6ccccc6)nn5)cc4)nn3)N2C1=O [Compound 16]
- concentration causing PARP cleavage [3]: 3 nM
- concentration causing caspase-3 processing [3]: 3 nM
- concentrations effectively inducing apoptosis and inhibiting cell growth (as low as) [4]: 1 to 10 nM
- times more potent than 15 in inducing apoptosis and inhibiting cell growth [4]: 100 times
- times more potent than 15 in binding to XIAP containing both BIR2 and BIR3 domains [5]: > 100 times
- concentration inducing clear/robust cIAP1 degradation [6]: 1 nM
- times more potent than 15 in binding to cIAP2 BIR3 protein [7]: 10 times
- antitumor effect in MDA-MB-231 xenograft model (MDA-MB-231 xenograft [8]): tumor regression
- times more potent than 15 in binding to cIAP1 BIR3 protein [9]: 10 times

SMILES: CN[C@@H](C)C(=O)N[C@H]1CCCC[C@H]2CC[C@@H](C(=O)N[C@@H](c3ccccc3)c3cn(CCc4ccc(CCn5cc([C@@H](NC(=O)[C@@H]6CC[C@@H]7CCCC[C@H](NC(=O)[C@H](C)NC)C(=O)N76)c6ccccc6)nn5)cc4)nn3)N2C1=O [Compound 19, (S,3S,3′S,6S,6′S,10aS,10a′S)-N,N′-((1S,1′S)-(1,1′-(1,4-phenylenebis(ethane-2,1-diyl))bis(1H-1,2,3-triazole-4,1-diyl))bis(phenylmethylene))bis(6-((S)-2-(methylamino)propanamido)-5-oxodecahydropyrrolo[1,2-a]azocine-3-carboxamide)]
- caspase-3 processing and PARP cleavage [3]: fail to induce caspase-3 processing and PARP cleavage

SMILES: CN[C@@H](C)C(=O)N[C@H]1CCCC[C@H]2CC[C@@H](C(=O)N[C@@H](c3ccccc3)c3cn(CCCCCOCCCCCn4cc([C@@H](NC(=O)[C@@H]5CC[C@@H]6CCCC[C@H](NC(=O)[C@H](C)NC)C(=O)N65)c5ccccc5)nn4)nn3)N2C1=O [Compound 27, (S,3S,3′S,6S,6′S,10aS,10a′S)-N,N′-((1S,1′S)-(1,1′-(oxybis(pentane-5,1-diyl))bis(1H-1,2,3-triazole-4,1-diyl))bis(phenylmethylene))bis(6-((S)-2-(methylamino)propanamido)-5-oxodecahydropyrrolo[1,2-a]azocine-3-carboxamide)]
- solubility (Solubility): excellent solubility
- weight loss / signs of toxicity (MDA-MB-231 xenograft [10]): no signs of toxicity

SMILES: CN[C@@H](C)C(=O)N[C@H]1CCCC[C@H]2CC[C@@H](C(=O)N[C@@H](c3ccccc3)c3cn(CCCCCCc4ccc(CCCCCCn5cc([C@@H](NC(=O)[C@@H]6CC[C@@H]7CCCC[C@H](NC(=O)[C@H](C)NC)C(=O)N76)c6ccccc6)nn5)cc4)nn3)N2C1=O [Compound 21, (S,3S,3′S,6S,6′S,10aS,10a′S)-N,N′-((1S,1′S)-(1,1′-(1,4-phenylenebis(hexane-6,1-diyl))bis(1H-1,2,3-triazole-4,1-diyl))bis(phenylmethylene))bis(6-((S)-2-(methylamino)propanamido)-5-oxodecahydropyrrolo[1,2-a]azocine-3-carboxamide)]
- concentration causing PARP cleavage [3]: 3 nM
- concentration causing caspase-3 processing [3]: 3 nM

SMILES: CN[C@@H](C)C(=O)N[C@H]1CCCC[C@H]2CC[C@@H](C(=O)N[C@@H](c3ccccc3)c3cn(CCCc4ccc(CCCn5cc([C@@H](NC(=O)[C@@H]6CC[C@@H]7CCCC[C@H](NC(=O)[C@H](C)NC)C(=O)N76)c6ccccc6)nn5)cc4)nn3)N2C1=O [Compound 20, (S,3S,3′S,6S,6′S,10aS,10a′S)-N,N′-((1S,1′S)-(1,1′-(1,4-phenylenebis(propane-3,1-diyl))bis(1H-1,2,3-triazole-4,1-diyl))bis(phenylmethylene))bis(6-((S)-2-(methylamino)propanamido)-5-oxodecahydropyrrolo[1,2-a]azocine-3-carboxamide)]
- concentration causing PARP cleavage [3]: 3 nM
- concentration causing caspase-3 processing [3]: 10 nM
